Measured values from patent US20070173462A1, “Treatment of diseases associated with the use of antibiotics” (Optimer Pharmaceuticals, Inc., priority 2004, published 2007).
≈ marks a conversion by molar mass, not a printed value. Like-named read-outs stand apart in the source and are kept apart here.

Key:
Clostridium difficile = assay: MIC, 207 clinical isolates of C. difficile; type: cell-based
Source text: (§1) Compound I was additionally tested against anaerobic clinical isolates and against aerobic bacteria. […] The compound was also active against clinical strains of Staphylococcus sp. and Enterococcus sp.

Bacteroides fragilis = assay: MIC, clinical isolates (Table 3); type: cell-based; settings: n=69
Source text: as §1

Enterobacteiaceae = assay: MIC, clinical isolates (Table 3); type: cell-based; settings: n=28
Source text: as §1

Enterococcus sp. [1] = assay: MIC, clinical isolates (Table 3); type: cell-based
Source text: as §1

Eubacterium sp. = assay: MIC, clinical isolates (Table 3); type: cell-based; settings: n=26
Source text: as §1

Lactobacillus sp. = assay: MIC, clinical isolates (Table 3); type: cell-based; settings: n=8, in µg/mL
Source text: as §1

Prevotella sp. = assay: MIC, clinical isolates (Table 3); type: cell-based; settings: n=35
Source text: as §1

Propionibacterium sp. = assay: MIC, clinical isolates (Table 3); type: cell-based; settings: n=16
Source text: as §1

Pseudomonas sp. = assay: MIC, clinical isolates (Table 3); type: cell-based; settings: n=15
Source text: as §1

Staphylococcus sp. = assay: MIC, clinical isolates (Table 3); type: cell-based
Source text: as §1

Streptococcus sp. [2] = assay: MIC, clinical isolates (Table 3); type: cell-based; settings: n=10
Source text: as §1

C. glycolicum = assay: microbe, parasite or virus in culture; type: cell-based; settings: clinical isolates, n=9
C. innocuum = assay: microbe, parasite or virus in culture; type: cell-based; settings: [Clostridium] innocuum; clinical isolates, n=9
C. paraputrificum = assay: microbe, parasite or virus in culture; type: cell-based; settings: clinical isolates, n=10
C. perfringens = assay: microbe, parasite or virus in culture; type: cell-based
C. ramosum = assay: microbe, parasite or virus in culture; type: cell-based; settings: Thomasclavelia ramosa; clinical isolates, n=10
Other Clostridium sp. = assay: microbe, parasite or virus in culture; type: cell-based; settings: Clostridium; clinical isolates, n=11
[3] = tested on: Other anaerobic Gram negative rods; assay: organism not typed; type: cell-based; settings: clinical gastrointestinal isolates, n=51
[4] = tested on: Non-spore forming Gram positive rods; assay: organism not typed; type: cell-based; settings: clinical gastrointestinal isolates, n=64
[5] = tested on: Streptococcus milleri group; assay: microbe, parasite or virus in culture; type: cell-based; settings: clinical gastrointestinal isolates, n=14
Streptococcus sp. [6] = assay: microbe, parasite or virus in culture; type: cell-based; settings: clinical gastrointestinal isolates, n=9
Eschericia coli = assay: organism not typed; type: cell-based; settings: clinical gastrointestinal isolates, n=10
Enterobacter sp. = assay: microbe, parasite or virus in culture; type: cell-based; settings: clinical gastrointestinal isolates, n=20
Klebsiella sp. = assay: microbe, parasite or virus in culture; type: cell-based; settings: clinical gastrointestinal isolates, n=10
Proteus mirabilis = assay: microbe, parasite or virus in culture; type: cell-based; settings: clinical gastrointestinal isolates, n=10
Pseudomonas aeruginosa = assay: microbe, parasite or virus in culture; type: cell-based; settings: clinical gastrointestinal isolates, n=10
Enterococcus sp. [7] = assay: microbe, parasite or virus in culture; type: cell-based; settings: clinical gastrointestinal isolates, n=22
Stephylococcus sp. = assay: organism not typed; type: cell-based; settings: clinical gastrointestinal isolates, n=19
toxigenic C. difficile = assay: Hamster model of clindamycin-induced Clostridium difficile associated diarrhea/colitis; type: in vivo, Syrian hamsters
Experimental: Animals were treated with two oral doses of clindamycin at 100 mg/kg. Three days after the second dose of clindamycin, they were inoculated with toxigenic C. difficile spores. […] Animals were observed daily for the presence or absence of diarrhea. Necropsies were performed on some animals that died during the experiment, and cecal contents were assayed for C. difficile toxin A. Hamsters were monitored for 20 days, and the cumulative mortality during this period was recorded (FIG. 1).

[8] = tested on: C. difficile, C. perfringens and C. sordellii; assay: organism not typed; type: cell-based

Q: Which MIC90 (Clostridium difficile; Clostridioides difficile, clinical isolates, n=207) does the source give for `CCc1c(Cl)c(O)c(Cl)c(O)c1C(=O)O[C@H]1[C@H](O)[C@H](OC)[C@H](OC/C2=C\C=C\C[C@H](O)/C(C)=C/[C@H](CC)C(O[C@@H]3OC(C)(C)[C@@H](OC(=O)C(C)C)[C@H](O)[C@@H]3O)/C(C)=C/C(C)=C/C[C@@H](C(C)O)OC2=O)O[C@@H]1C` (stereo partly drawn) [Compound I] here?
A: Its MIC90 is 0.008 µg/mL (≈ 0.00756 µM).

Q: What about the MIC50 (Clostridium difficile; Clostridioides difficile, clinical isolates, n=207, read-out: MIC50) of the same compound?
A: Its MIC50 is 0.0019 µg/mL (≈ 0.0018 µM).

Q: What about the MIC50 (Clostridium difficile; clinical isolates, n=207) of the same compound?
A: The MIC50 was 0.002 µg/mL (≈ 0.00189 µM).

Q: And the “sensitivity of isolates (in words)” value (Clostridium difficile; panel of 207 C. difficile clinical isolates)?
A: The value was “very sensitive”.

Q: What about the MIC50 (Bacteroides fragilis; Bacteroides fragilis) of the same compound?
A: Its MIC50 is no less than 128 µg/mL.

Q: What about the “Range (MIC)” value (Bacteroides fragilis) of the same compound?
A: Its value is “≧128^”.

Q: What about the MIC50 (Enterobacteiaceae) of the same compound?
A: The MIC50 was greater than 64 µg/mL.

Q: What about the Range (MIC) (Enterobacteiaceae) of the same compound?
A: Its Range (MIC) is greater than 64 µg/mL.

Q: And the MIC50 (Enterococcus sp. [1]; Enterococcus, clinical isolates, n=8)?
A: The MIC50 was 4 µg/mL (≈ 3.78 µM).

Q: What about the “Range (MIC)” value (Enterococcus sp. [1]; clinical isolates, n=8, in µg/mL) of the same compound?
A: The value was 1-8.

Q: What about the “activity (in words)” value (Enterococcus sp. [1]; clinical strains) of the same compound?
A: The value was “active”.

Q: And the MIC50 (Eubacterium sp.)?
A: Its MIC50 is 32 µg/mL (≈ 30.2 µM).

Q: And the “Range (MIC)” value (Lactobacillus sp.)?
A: The value was 8-32.

Q: What about the MIC50 (Prevotella sp.) of the same compound?
A: Its MIC50 is no less than 128 µg/mL.

Q: What about the MIC50 (Propionibacterium sp.) of the same compound?
A: Its MIC50 is 4 µg/mL (≈ 3.78 µM).

Q: What about the MIC50 (Pseudomonas sp.; Pseudomonas) of the same compound?
A: Its MIC50 is greater than 64 µg/mL.

Q: What about the Range (MIC) (Pseudomonas sp.) of the same compound?
A: The Range (MIC) was greater than 64 µg/mL.

Q: And the MIC50 (Staphylococcus sp.; Staphylococcus, clinical isolates, n=10)?
A: Its MIC50 is 2 µg/mL (≈ 1.89 µM).

Q: And the “Range (MIC)” value (Staphylococcus sp.; clinical isolates, n=10, in µg/mL)?
A: The value was 1-8.

Q: What about the “activity (in words)” value (Staphylococcus sp.; clinical strains) of the same compound?
A: The value was “active”.

Q: And the MIC50 (Streptococcus sp. [2])?
A: The MIC50 was 16 µg/mL (≈ 15.1 µM).

Q: What about the MIC50 (C. glycolicum; Terrisporobacter glycolicus) of the same compound?
A: Its MIC50 is 0.062 µg/mL (≈ 0.0586 µM).

Q: And the MIC90 (C. glycolicum; Terrisporobacter glycolicus)?
A: Its MIC90 is 1 µg/mL (≈ 0.945 µM).

Q: And the “Range (MIC)” value (C. glycolicum)?
A: The value was 0.062 to 1 µg/mL.

Q: What about the MIC50 (C. innocuum) of the same compound?
A: The MIC50 was greater than 1020 µg/mL.

Q: What about the MIC90 (C. innocuum) of the same compound?
A: The MIC90 was greater than 1020 µg/mL.

Q: What about the MIC50 (C. paraputrificum; Clostridium paraputrificum) of the same compound?
A: Its MIC50 is 8 µg/mL (≈ 7.56 µM).

Q: What about the MIC90 (C. paraputrificum; Clostridium paraputrificum) of the same compound?
A: The MIC90 was 32 µg/mL (≈ 30.2 µM).

Q: What about the “Range (MIC)” value (C. paraputrificum) of the same compound?
A: Its value is 0.062-64 ^ μg/mL.

Q: What about the MIC50 (C. perfringens; Clostridium perfringens) of the same compound?
A: Its MIC50 is 0.062 µg/mL (≈ 0.0586 µM).

Q: And the MIC90 (C. perfringens; Clostridium perfringens)?
A: The MIC90 was 0.062 µg/mL (≈ 0.0586 µM).

Q: And the “Range (MIC)” value (C. perfringens; clinical isolates, n=14)?
A: The value was 0.062 µg/mL.

Q: And the MIC50 (C. ramosum)?
A: Its MIC50 is greater than 1020 µg/mL.

Q: And the MIC90 (C. ramosum)?
A: Its MIC90 is greater than 1020 µg/mL.

Q: And the MIC50 (Other Clostridium sp.)?
A: The MIC50 was 32 µg/mL (≈ 30.2 µM).

Q: And the MIC90 (Other Clostridium sp.)?
A: The MIC90 was 1020 µg/mL (≈ 968 µM).

Q: And the MIC50 [3]?
A: The MIC50 was 1020 µg/mL (≈ 968 µM).

Q: And the MIC90 [3]?
A: Its MIC90 is greater than 1020 µg/mL.

Q: And the MIC50 [4]?
A: Its MIC50 is 1 µg/mL (≈ 0.945 µM).

Q: And the MIC90 [4]?
A: The MIC90 was 32 µg/mL (≈ 30.2 µM).

Q: And the MIC50 ([5]; Streptococcus milleri)?
A: Its MIC50 is 32 µg/mL (≈ 30.2 µM).

Q: What about the MIC90 ([5]; Streptococcus milleri) of the same compound?
A: Its MIC90 is 32 µg/mL (≈ 30.2 µM).

Q: And the “Range (MIC)” value [5]?
A: Its value is 16 to 64 µg/mL.

Q: And the MIC50 (Streptococcus sp. [6]; Streptococcus)?
A: The MIC50 was 32 µg/mL (≈ 30.2 µM).

Q: What about the MIC90 (Streptococcus sp. [6]; Streptococcus) of the same compound?
A: The MIC90 was 128 µg/mL (≈ 121 µM).

Q: And the “Range (MIC)” value (Streptococcus sp. [6])?
A: The value was 16 to 128 µg/mL.

Q: What about the MIC50 (Eschericia coli) of the same compound?
A: The MIC50 was greater than 256 µg/mL.

Q: And the MIC90 (Eschericia coli)?
A: Its MIC90 is greater than 256 µg/mL.

Q: And the “Range (MIC)” value (Eschericia coli)?
A: The value was greater than 256 µg/mL.

Q: What about the MIC50 (Enterobacter sp.; Enterobacter) of the same compound?
A: Its MIC50 is greater than 256 µg/mL.

Q: And the MIC90 (Enterobacter sp.; Enterobacter)?
A: The MIC90 was greater than 256 µg/mL.

Q: And the “Range (MIC)” value (Enterobacter sp.)?
A: The value was greater than 256 µg/mL.

Q: And the MIC50 (Klebsiella sp.; Klebsiella)?
A: Its MIC50 is greater than 256 µg/mL.

Q: And the MIC90 (Klebsiella sp.; Klebsiella)?
A: The MIC90 was greater than 256 µg/mL.

Q: And the “Range (MIC)” value (Klebsiella sp.)?
A: Its value is greater than 256 µg/mL.

Q: What about the MIC50 (Proteus mirabilis; Proteus mirabilis) of the same compound?
A: The MIC50 was greater than 256 µg/mL.

Q: And the MIC90 (Proteus mirabilis; Proteus mirabilis)?
A: Its MIC90 is greater than 256 µg/mL.

Q: And the “Range (MIC)” value (Proteus mirabilis)?
A: Its value is greater than 256 µg/mL.

Q: What about the MIC50 (Pseudomonas aeruginosa) of the same compound?
A: The MIC50 was greater than 256 µg/mL.

Q: And the MIC90 (Pseudomonas aeruginosa)?
A: The MIC90 was greater than 256 µg/mL.

Q: What about the MIC50 (Enterococcus sp. [7]; Enterococcus) of the same compound?
A: The MIC50 was 8 µg/mL (≈ 7.56 µM).

Q: What about the MIC90 (Enterococcus sp. [7]; Enterococcus) of the same compound?
A: Its MIC90 is 8 µg/mL (≈ 7.56 µM).

Q: And the “Range (MIC)” value (Enterococcus sp. [7])?
A: The value was 0.5-16^ μg/mL.

Q: What about the MIC50 (Stephylococcus sp.) of the same compound?
A: Its MIC50 is 0.5 µg/mL (≈ 0.473 µM).

Q: What about the MIC90 (Stephylococcus sp.) of the same compound?
A: Its MIC90 is 1 µg/mL (≈ 0.945 µM).

Q: And the “Range (MIC)” value (Stephylococcus sp.)?
A: Its value is 0.25-2 ^ μg/mL.

Q: And the ED50 (toxigenic C. difficile; Clostridioides difficile, oral, 7 days, started 8 hours after infection, hamsters monitored 20 days)?
A: Its ED50 is less than 0.3 mg/kg.

Q: And the “protection from infection (cumulative mortality over 20 days)” value (toxigenic C. difficile; oral treatment for 7 days, untreated infection uniformly fatal between days two and six)?
A: Its value is “protected the animals from infection”.

Q: And the MIC90 [8]?
A: The MIC90 was 0.062 to 0.25 µg/mL (≈ 0.0586 to 0.236 µM).
